pIC50: −log10 of the molar value.
Target: ALK tyrosine kinase receptor (Homo sapiens, UniProt Q9UM73)
Experiment: 2.5 uL-4x Test Compound or 100 nL 100x plus 2.4 uL kinase buffer; 2. 5 uL-2x Peptide/Kinase Mixture; 3. 2.5 uL-4xATP Solution; 4. 30-second plate shake; 5. 60-minute Kinase Reaction incubation at room temperature; 6. 5 uL-Development Reagent Solution; 7. 30-second plate shake; 8. 60-minute Development Reaction incubation at room temperature; 9. […] After the 1 hour Kinase Reaction incubation, 5 uL of a 1:256 dilution of Development Reagent B is added.

Chain of ALK tyrosine kinase receptor (Q9UM73 whole entry): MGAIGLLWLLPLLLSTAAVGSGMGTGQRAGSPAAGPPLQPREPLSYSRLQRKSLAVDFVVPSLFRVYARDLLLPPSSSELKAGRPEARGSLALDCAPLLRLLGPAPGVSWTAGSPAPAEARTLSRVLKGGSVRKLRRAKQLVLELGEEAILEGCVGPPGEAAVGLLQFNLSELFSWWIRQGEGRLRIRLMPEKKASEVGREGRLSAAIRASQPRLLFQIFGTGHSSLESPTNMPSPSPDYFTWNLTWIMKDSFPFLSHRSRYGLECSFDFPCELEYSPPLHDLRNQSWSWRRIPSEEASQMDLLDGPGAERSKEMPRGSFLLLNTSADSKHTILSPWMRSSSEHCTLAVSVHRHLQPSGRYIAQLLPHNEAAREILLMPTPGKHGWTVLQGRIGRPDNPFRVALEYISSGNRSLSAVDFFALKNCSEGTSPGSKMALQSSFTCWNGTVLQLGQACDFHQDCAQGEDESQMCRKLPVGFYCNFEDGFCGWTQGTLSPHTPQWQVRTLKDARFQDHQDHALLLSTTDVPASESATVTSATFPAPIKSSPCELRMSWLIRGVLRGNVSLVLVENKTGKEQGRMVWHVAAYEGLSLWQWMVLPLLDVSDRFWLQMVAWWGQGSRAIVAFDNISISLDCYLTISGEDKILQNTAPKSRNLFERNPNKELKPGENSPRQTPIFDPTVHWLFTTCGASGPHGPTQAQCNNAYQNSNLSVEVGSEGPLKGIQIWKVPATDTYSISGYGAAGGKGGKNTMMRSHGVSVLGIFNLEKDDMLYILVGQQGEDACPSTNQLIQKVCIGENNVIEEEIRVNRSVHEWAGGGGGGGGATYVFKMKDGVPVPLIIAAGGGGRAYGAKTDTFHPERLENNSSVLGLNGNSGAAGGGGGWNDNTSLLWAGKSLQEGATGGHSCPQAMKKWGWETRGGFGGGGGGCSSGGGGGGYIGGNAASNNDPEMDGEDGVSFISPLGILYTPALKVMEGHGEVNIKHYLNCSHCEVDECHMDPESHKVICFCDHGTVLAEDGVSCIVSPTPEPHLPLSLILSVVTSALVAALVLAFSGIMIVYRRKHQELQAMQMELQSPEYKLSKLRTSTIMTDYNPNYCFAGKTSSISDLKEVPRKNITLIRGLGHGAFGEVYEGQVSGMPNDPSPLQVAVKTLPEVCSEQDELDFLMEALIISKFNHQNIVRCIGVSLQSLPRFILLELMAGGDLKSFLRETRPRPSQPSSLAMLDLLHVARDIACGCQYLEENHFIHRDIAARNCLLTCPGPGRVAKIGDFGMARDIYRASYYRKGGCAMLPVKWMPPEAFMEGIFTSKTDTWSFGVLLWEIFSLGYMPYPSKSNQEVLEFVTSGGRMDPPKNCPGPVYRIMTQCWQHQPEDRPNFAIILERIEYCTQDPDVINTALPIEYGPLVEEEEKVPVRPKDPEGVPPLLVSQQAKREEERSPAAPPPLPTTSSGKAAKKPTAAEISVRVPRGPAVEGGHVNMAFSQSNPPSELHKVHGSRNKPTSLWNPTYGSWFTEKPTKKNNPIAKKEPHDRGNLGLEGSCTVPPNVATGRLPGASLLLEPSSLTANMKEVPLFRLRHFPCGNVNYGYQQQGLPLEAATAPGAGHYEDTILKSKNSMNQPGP

In the case of `COc1cc(N2CCC(N(C)C)CC2)ccc1Nc1ncc(Cl)c(Nc2ccccc2C(=O)C(N)=O)n1`, the pIC50 was 7.55.
